Results on 20 compounds are retold here after patent US9802901B2, “Antibacterial 2H-indazole derivatives” (priority 2013, dated 2017).

In brackets after ≈: the same amount, converted by molar mass.

What all share (experiment): Bacterial growth minimal inhibitory concentration (broth microdilution, CLSI M7-A7)
One test deals with P. aeruginosa ATCC27853. The class given is cell-based, Pseudomonas aeruginosa. The following applies: cation-adjusted Mueller-Hinton Broth, microdilution, quinolone-sensitive strain; for MIC: Pseudomonas aeruginosa, ATCC27853, read-out: MIC for P. aeruginosa ATCC27853. The procedure, abridged: (§1)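 Broth microdilution in cation-adjusted Mueller-Hinton Broth per CLSI M7-A7; MICs reported in mg/L. K. pneumoniae A-651 and A. baumannii T6474 are multiply resistant, quinolone-resistant strains; E. coli ATCC25922 and P. aeruginosa ATCC27853 are quinolone-sensitive.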
Background: Dilution methods test growth across graded concentrations, often in twofold steps.

In another test the test system is E. coli ATCC25922. The test is classed as cell-based, Escherichia coli. Conditions: cation-adjusted Mueller-Hinton Broth, microdilution, quinolone-sensitive strain; for MIC: Escherichia coli, ATCC25922, read-out: MIC for E. coli ATCC25922. The procedure, abridged: as §1
Test [1] concerns Acinetobacter baumannii T6474. The class given is cell-based. Conditions: cation-adjusted Mueller-Hinton Broth, microdilution, multiply-resistant (quinolone-resistant) strain; for MIC: Acinetobacter baumannii, T6474, read-out: MIC for A. Baumannii T6474. The procedure, abridged: as §1
Another test concerns K. pneumoniae A-651. The class given is cell-based, Klebsiella pneumoniae. The following applies: cation-adjusted Mueller-Hinton Broth, microdilution, multiply-resistant (quinolone-resistant) strain; for MIC: Klebsiella pneumoniae, A651, read-out: MIC for K. Pneumoniae A-651. The method, boiled down: as §1

As a reminder, the MIC is the least concentration at which growth counts as inhibited. On to `C[C@@](CCn1cc2cc(C#Cc3ccc([C@H](O)CO)cc3)ccc2n1)(C(=O)NO)S(C)(=O)=O` [Example 51, (R)-4-(5-((4-((S)-1,2-dihydroxyethyl)phenyl)ethynyl)-2H-indazol-2-yl)-N-hydroxy-2-methyl-2-(methylsulfonyl)butanamide], for which the MIC in the test on P. aeruginosa ATCC27853 amounted to 0.5 µg/mL (≈ 1.06 µM); with E. coli ATCC25922, 1 µg/mL (≈ 2.12 µM); in test [1], 1 µg/mL (≈ 2.12 µM); in the test with K. pneumoniae A-651, 0.5 µg/mL (≈ 1.06 µM).
`COCCOc1ccc(-c2ccc3nn(CC[C@](C)(C(=O)NO)S(C)(=O)=O)cc3c2)cc1` [Example 52, (R)—N-hydroxy-4-(5-(4-(2-methoxyethoxy)phenyl)-2H-indazol-2-yl)-2-methyl-2-(methylsulfonyl)butanamide]: the MIC with P. aeruginosa ATCC27853 amounted to 2 µg/mL (≈ 4.33 µM); in the test with E. coli ATCC25922, 0.125 µg/mL (≈ 0.271 µM); in test [1], 1 µg/mL (≈ 2.17 µM); with K. pneumoniae A-651, 0.5 µg/mL (≈ 1.08 µM).
`C[C@@](CCn1cc2cc(C#CC#C[C@H]3C[C@@H]3CO)c(F)cc2n1)(C(=O)NO)S(C)(=O)=O` [Example 53, (R)-4-(6-fluoro-5-(((1S,2S)-2-(hydroxymethyl)cyclopropyl)buta-1,3-diyn-1-yl)-2H-indazol-2-yl)-N-hydroxy-2-methyl-2-(methylsulfonyl)butanamide]: the MIC in the test with P. aeruginosa ATCC27853 was 0.5 µg/mL (≈ 1.12 µM); in the test on E. coli ATCC25922, not above 0.063 µg/mL; in test [1] it was 2 µg/mL (≈ 4.47 µM); with K. pneumoniae A-651 it was 0.125 µg/mL (≈ 0.279 µM).
Regarding `C[C@@](CCn1cc2c(F)c(C#CC#C[C@H]3C[C@@H]3CO)ccc2n1)(C(=O)NO)S(C)(=O)=O` [Example 54, (R)-4-(4-fluoro-5-(((1S,2S)-2-(hydroxymethyl)cyclopropyl)buta-1,3-diyn-1-yl)-2H-indazol-2-yl)-N-hydroxy-2-methyl-2-(methylsulfonyl)butanamide], the MIC with P. aeruginosa ATCC27853 was 0.5 µg/mL (≈ 1.12 µM); in the test with E. coli ATCC25922 it was not above 0.063 µg/mL; in test [1], 4 µg/mL (≈ 8.94 µM); in the test with K. pneumoniae A-651, not above 0.063 µg/mL.
As to `C[C@@](CCn1cc2cc(C#CC#C[C@H](O)CO)ccc2n1)(C(=O)NO)S(C)(=O)=O` [Example 55, (R)-4-(5-((S)-5,6-dihydroxyhexa-1,3-diyn-1-yl)-2H-indazol-2-yl)-N-hydroxy-2-methyl-2-(methylsulfonyl)butanamide], the minimal inhibitory concentration (MIC) in the test on P. aeruginosa ATCC27853 is 2 µg/mL (≈ 4.77 µM); in the test on E. coli ATCC25922, 2 µg/mL (≈ 4.77 µM); in test [1] it was more than 32 µg/mL; in the test with K. pneumoniae A-651, 4 µg/mL (≈ 9.54 µM).
Consider `C[C@@](CCn1cc2cc(C#CC#CC3(CO)CC3)ccc2n1)(C(=O)NO)S(C)(=O)=O` [Example 56, (R)—N-hydroxy-4-(5-((1-(hydroxymethyl)cyclopropyl)buta-1,3-diyn-1-yl)-2H-indazol-2-yl)-2-methyl-2-(methylsulfonyl)butanamide], for which the MIC in the test with P. aeruginosa ATCC27853 is 0.5 µg/mL (≈ 1.16 µM); with E. coli ATCC25922 it was 0.25 µg/mL (≈ 0.582 µM); in test [1], more than 32 µg/mL; with K. pneumoniae A-651, 0.5 µg/mL (≈ 1.16 µM).
As to `C[C@@](CCn1cc2cc(C#CC#CC34CC(CO)(C3)C4)ccc2n1)(C(=O)NO)S(C)(=O)=O` [Example 57, (R)—N-hydroxy-4-(5-((3-(hydroxymethyl)bicyclo[1.1.1]pentan-1-yl)buta-1,3-diyn-1-yl)-2H-indazol-2-yl)-2-methyl-2-(methylsulfonyl)butanamide], the MIC with P. aeruginosa ATCC27853 is 0.5 µg/mL (≈ 1.1 µM); in the test on E. coli ATCC25922 it was 0.125 µg/mL (≈ 0.274 µM); in test [1] it was 8 µg/mL (≈ 17.6 µM); in the test with K. pneumoniae A-651 it was 0.25 µg/mL (≈ 0.549 µM).
On to `C[C@@](CCn1cc2cc(-c3ccc(OC[C@H](O)CO)cc3F)ccc2n1)(C(=O)NO)S(C)(=O)=O` [Example 58, (R)-4-(5-(4-((R)-2,3-dihydroxypropoxy)-2-fluorophenyl)-2H-indazol-2-yl)-N-hydroxy-2-methyl-2-(methylsulfonyl)butanamide], for which the MIC amounted to 2 µg/mL (≈ 4.04 µM) with P. aeruginosa ATCC27853, 2 µg/mL (≈ 4.04 µM) in the test on E. coli ATCC25922, 8 µg/mL (≈ 16.1 µM) in test [1] and 4 µg/mL (≈ 8.07 µM) in the test on K. pneumoniae A-651.
With `C[C@@](CCn1cc2cc(C#Cc3cncnc3)ccc2n1)(C(=O)NO)S(C)(=O)=O` [Example 59, (R)—N-hydroxy-2-methyl-2-(methylsulfonyl)-4-(5-(pyrimidin-5-ylethynyl)-2H-indazol-2-yl)butanamide], the MIC with P. aeruginosa ATCC27853 came to 8 µg/mL (≈ 19.3 µM); with E. coli ATCC25922, 4 µg/mL (≈ 9.67 µM); in test [1], 8 µg/mL (≈ 19.3 µM); in the test on K. pneumoniae A-651 it was 8 µg/mL (≈ 19.3 µM).
Take `C[C@@](CCn1cc2cc(C#CC#C[C@@H]3C[C@@H](O)[C@@H](O)C3)ccc2n1)(C(=O)NO)S(C)(=O)=O` [Example 64, (R)-4-(5-(((1S,3R,4S)-3,4-dihydroxycyclopentyl)buta-1,3-diyn-1-yl)-2H-indazol-2-yl)-N-hydroxy-2-methyl-2-(methylsulfonyl)butanamide]: the “MIC for P. aeruginosa ATCC27853” value against P. aeruginosa ATCC27853 is 0.25 µg/mL. Also, in the test on E. coli ATCC25922, the “MIC for E. coli ATCC25922” value was 0.125 µg/mL. Moreover, in test [1], the “MIC for A. Baumannii T6474” value turned out to be 4 µg/mL. Moreover, the “MIC for K. Pneumoniae A-651” value with K. pneumoniae A-651 turned out to be 0.5 µg/mL.
As to `C[C@@](CCn1cc2cc(C#CC#CC3(N)CC3)ccc2n1)(C(=O)NO)S(C)(=O)=O` [Example 65, (R)-4-(5-((1-aminocyclopropyl)buta-1,3-diyn-1-yl)-2H-indazol-2-yl)-N-hydroxy-2-methyl-2-(methylsulfonyl)butanamide], the MIC in the test on P. aeruginosa ATCC27853 was 0.5 µg/mL (≈ 1.21 µM); with E. coli ATCC25922 it was 0.125 µg/mL (≈ 0.302 µM); in test [1], more than 32 µg/mL; in the test with K. pneumoniae A-651, 0.125 µg/mL (≈ 0.302 µM).
For `C[C@@](CCn1cc2cc(C#CC#CCC3(O)CC(CO)C3)ccc2n1)(C(=O)NO)S(C)(=O)=O` (some centres unmarked) [Example 66], in the test with P. aeruginosa ATCC27853, the “MIC for P. aeruginosa ATCC27853” value came to 2 µg/mL. In addition, the “MIC for E. coli ATCC25922” value with E. coli ATCC25922 stood at 1 µg/mL. Also, the “MIC for A. Baumannii T6474” value in test [1] was more than 32 µg/mL. Also, the “MIC for K. Pneumoniae A-651” value in the test on K. pneumoniae A-651 was 4 µg/mL.
With `C[C@@]1(C#CC#Cc2ccc3nn(CC[C@](C)(C(=O)NO)S(C)(=O)=O)cc3c2)C[C@H]1CO` [Example 67, (R)—N-hydroxy-4-(5-(((1R,2R)-2-(hydroxymethyl)-1-methylcyclopropyl)buta-1,3-diyn-1-yl)-2H-indazol-2-yl)-2-methyl-2-(methylsulfonyl)butanamide], the minimum inhibitory concentration (MIC) with P. aeruginosa ATCC27853 was found to be 0.25 µg/mL (≈ 0.564 µM); in the test on E. coli ATCC25922, 0.125 µg/mL (≈ 0.282 µM); in test [1], 32 µg/mL (≈ 72.1 µM); in the test with K. pneumoniae A-651, 0.125 µg/mL (≈ 0.282 µM).
For the compound `C[C@@](CCn1cc2cc(C#CC#CC3(CO)COC3)ccc2n1)(C(=O)NO)S(C)(=O)=O` [Example 68, (R)—N-hydroxy-4-(5-((3-(hydroxymethyl)oxetan-3-yl)buta-1,3-diyn-1-yl)-2H-indazol-2-yl)-2-methyl-2-(methylsulfonyl)butanamide], the MIC is 1 µg/mL (≈ 2.24 µM) in the test on P. aeruginosa ATCC27853, 1 µg/mL (≈ 2.24 µM) with E. coli ATCC25922, more than 32 µg/mL in test [1] and 1 µg/mL (≈ 2.24 µM) in the test with K. pneumoniae A-651.
For the compound `C[C@]1(CO)C[C@@H]1C#CC#Cc1ccc2nn(CC[C@](C)(C(=O)NO)S(C)(=O)=O)cc2c1` [Example 69], the “MIC for P. aeruginosa ATCC27853” value against P. aeruginosa ATCC27853 stood at 0.25 µg/mL. Moreover, the “MIC for E. coli ATCC25922” value in the test with E. coli ATCC25922 is on record as “≦0.063 mg/L”. In addition, the “MIC for A. Baumannii T6474” value in test [1] was determined as 2 µg/mL. Further, the “MIC for K. Pneumoniae A-651” value with K. pneumoniae A-651 amounted to 0.125 µg/mL.
On to `C[C@@](CCn1cc2cc(C#CC#CC3CCC(NC(=O)CN)C3)ccc2n1)(C(=O)NO)S(C)(=O)=O` (stereo partly drawn) [Example 70, (R)-4-(5-((3-(2-aminoacetamido)cyclopentyl)buta-1,3-diyn-1-yl)-2H-indazol-2-yl)-N-hydroxy-2-methyl-2-(methylsulfonyl)butanamide], for which the MIC was 2 µg/mL (≈ 4 µM) in the test on P. aeruginosa ATCC27853, 1 µg/mL (≈ 2 µM) in the test on E. coli ATCC25922, more than 32 µg/mL in test [1] and 1 µg/mL (≈ 2 µM) in the test on K. pneumoniae A-651.
For `C[C@@](CCn1cc2cc(C#CC#C[C@@H]3C[C@H]3[C@H](O)CO)ccc2n1)(C(=O)NO)S(C)(=O)=O` [Example 71, (R)-4-(5-(((1R,2R)-2-((S)-1,2-dihydroxyethyl)cyclopropyl)buta-1,3-diyn-1-yl)-2H-indazol-2-yl)-N-hydroxy-2-methyl-2-(methylsulfonyl)butanamide], the MIC in the test on P. aeruginosa ATCC27853 was determined as 0.25 µg/mL (≈ 0.544 µM); with E. coli ATCC25922 it was 0.25 µg/mL (≈ 0.544 µM); in test [1], 8 µg/mL (≈ 17.4 µM); in the test on K. pneumoniae A-651, 0.5 µg/mL (≈ 1.09 µM).
Consider `C[C@@](CCn1cc2cc(C#CC#C[C@@H]3C[C@H]3CN)ccc2n1)(C(=O)NO)S(C)(=O)=O` [Example 72, (R)-4-(5-(((1R,2R)-2-(aminomethyl)cyclopropyl)buta-1,3-diyn-1-yl)-2H-indazol-2-yl)-N-hydroxy-2-methyl-2-(methylsulfonyl)butanamide], for which the MIC in the test on P. aeruginosa ATCC27853 was 2 µg/mL (≈ 4.67 µM); with E. coli ATCC25922, 2 µg/mL (≈ 4.67 µM); in test [1], more than 8 µg/mL; in the test on K. pneumoniae A-651, 4 µg/mL (≈ 9.33 µM).
As for `C[C@@](CCn1cc2cc(C#CC#CC3(CO)CCC3)ccc2n1)(C(=O)NO)S(C)(=O)=O` [Example 73, (R)—N-hydroxy-4-(5-((1-(hydroxymethyl)cyclobutyl)buta-1,3-diyn-1-yl)-2H-indazol-2-yl)-2-methyl-2-(methylsulfonyl)butanamide], the MIC is 1 µg/mL (≈ 2.25 µM) in the test on P. aeruginosa ATCC27853, 0.125 µg/mL (≈ 0.282 µM) with E. coli ATCC25922, 32 µg/mL (≈ 72.1 µM) in test [1] and 0.25 µg/mL (≈ 0.564 µM) in the test with K. pneumoniae A-651.
The matching figures for `C[C@@](CCn1cc2cc(C#CC#C[C@@]3(F)C[C@@H]3CO)ccc2n1)(C(=O)NO)S(C)(=O)=O` [Example 74, (R)-4-(5-(((1R,2R)-1-fluoro-2-(hydroxymethyl)cyclopropyl)buta-1,3-diyn-1-yl)-2H-indazol-2-yl)-N-hydroxy-2-methyl-2-(methylsulfonyl)butanamide]: 0.5 µg/mL (≈ 1.12 µM), 0.125 µg/mL (≈ 0.279 µM), 4 µg/mL (≈ 8.94 µM) and 0.125 µg/mL (≈ 0.279 µM).
